The source of these data is patent US20250034216A1, “STEREOSELECTIVE COVALENT LIGANDS FOR ONCOGENIC AND IMMUNOLOGICAL PROTEINS” (The Scripps Research Institute, priority 2021, published 2025).

The target in the assay is T1, CLUH_C333 (Homo sapiens, UniProt O75153).
T1 construct: endogenous in cells; host or cells: 22Rv1
T1 sequence (O75153 1-1309): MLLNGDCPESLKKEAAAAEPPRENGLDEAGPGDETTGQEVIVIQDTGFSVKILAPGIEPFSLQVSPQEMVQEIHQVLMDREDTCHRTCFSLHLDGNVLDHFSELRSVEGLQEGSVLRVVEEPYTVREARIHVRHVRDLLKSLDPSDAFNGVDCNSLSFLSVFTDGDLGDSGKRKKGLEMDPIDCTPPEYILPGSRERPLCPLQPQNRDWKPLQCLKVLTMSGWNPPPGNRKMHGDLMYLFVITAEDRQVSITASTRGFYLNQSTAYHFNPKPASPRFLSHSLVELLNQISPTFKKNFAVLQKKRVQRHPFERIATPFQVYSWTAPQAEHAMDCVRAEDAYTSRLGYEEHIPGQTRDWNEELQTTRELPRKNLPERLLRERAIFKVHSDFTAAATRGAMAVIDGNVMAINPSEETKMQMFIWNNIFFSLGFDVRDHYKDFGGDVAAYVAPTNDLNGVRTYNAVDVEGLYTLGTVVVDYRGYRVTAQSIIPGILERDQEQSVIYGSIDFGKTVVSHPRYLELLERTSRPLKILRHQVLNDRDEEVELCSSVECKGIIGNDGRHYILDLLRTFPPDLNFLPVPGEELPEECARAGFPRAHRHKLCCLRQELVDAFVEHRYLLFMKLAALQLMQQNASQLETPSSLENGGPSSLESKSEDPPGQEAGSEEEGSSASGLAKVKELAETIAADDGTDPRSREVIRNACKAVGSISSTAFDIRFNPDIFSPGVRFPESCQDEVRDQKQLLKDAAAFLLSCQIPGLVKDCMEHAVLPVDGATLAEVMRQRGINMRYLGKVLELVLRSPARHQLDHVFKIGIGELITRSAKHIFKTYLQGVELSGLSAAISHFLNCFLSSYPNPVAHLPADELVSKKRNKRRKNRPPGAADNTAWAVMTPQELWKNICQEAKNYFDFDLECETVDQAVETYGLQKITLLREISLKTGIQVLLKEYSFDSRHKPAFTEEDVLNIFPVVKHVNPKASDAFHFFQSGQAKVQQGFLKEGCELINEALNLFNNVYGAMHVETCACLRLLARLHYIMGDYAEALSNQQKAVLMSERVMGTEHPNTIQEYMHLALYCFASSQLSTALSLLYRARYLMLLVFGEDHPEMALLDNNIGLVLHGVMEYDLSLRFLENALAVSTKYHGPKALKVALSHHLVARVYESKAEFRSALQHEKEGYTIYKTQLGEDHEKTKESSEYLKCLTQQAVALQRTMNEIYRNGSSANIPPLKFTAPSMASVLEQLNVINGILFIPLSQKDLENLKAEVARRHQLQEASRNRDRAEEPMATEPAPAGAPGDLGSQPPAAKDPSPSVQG
The assay can be described thus: IA-DTB cysteine engagement. The conditions noted are these: 22Rv1 cells, 20 μM probe, 1 h, relative to DMSO. The class given is binding. The method in brief:
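In-situ probe treatment of cells; lysate 2 mg/mL, IA-DTB 1 h RT; MeOH/CHCl3 precipitation, DTT/iodoacetamide, trypsin; streptavidin enrichment; TMT labeling, high-pH fractionation. Ratio = TMT reporter intensity / mean DMSO channels, median-normalized.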

In the case of `C=CC(=O)N1C[C@H](c2ccc(Br)cc2)[C@@H]1C(=O)Nc1cccc2cccnc12` [MY-1B, (2R,3S)-1-acryloyl-3-(4-bromophenyl)-N-(quinolin-8-yl)azetidine-2-carboxamide], the “% engagement CLUH_C333” value worked out at 13%. As to `C=CC(=O)N1C[C@H](c2ccc(Br)cc2)[C@H]1C(=O)Nc1cccc2cccnc12` [MY-3B, (2S,3S)-1-acryloyl-3-(4-bromophenyl)-N-(quinolin-8-yl)azetidine-2-carboxamide], the “% engagement CLUH_C333” value is given as −4.5%. Regarding `C=CC(=O)N1C[C@H](c2ccc(Br)cc2)[C@H]1C(=O)Nc1cccc2cccnc12` [MY-3A, (2S,3S)-1-acryloyl-3-(4-bromophenyl)-N-(quinolin-8-yl)azetidine-2-carboxamide], the “% engagement CLUH_C333” value stood at 0.5%. Next, `C=CC(=O)N1C[C@@H](c2ccc(Br)cc2)[C@H]1C(=O)Nc1cccc2cccnc12` [MY-1A, (2S,3R)-1-acryloyl-3-(4-bromophenyl)-N-(quinolin-8-yl)azetidine-2-carboxamide]: 81%.
